Results: US5877210A, “Phosphotyrosine phosphatase inhibitors or phosphotyrosine kinase activators for controlling cellular proliferation” (priority 1995, dated 1999)
Entries after “also recorded” stand apart in the source; their conditions may differ.

Tests used:
PP1 = assay: Serine/threonine phosphatase PP1 inhibition; assay type: biochemical; conditions: vs CD45 and PTP1B
CEM = assay: Apoptosis: DNA fragmentation on agarose gel; assay type: cell-based, human
Description: (§1) For these experiments, cell samples (2×10^6 cells) were centrifuged at 200× g, the media removed by aspiration and the cell pellets stored at -70° C. until processing. Cell pellets were resuspended in 300 μl digestion buffer (100 mM NaCl, 10 mM Tris-HCl, pH 8.0, 25 mM EDTA, 0.5% SDS, 0.1 mg/ml protease K) and incubated for 12 hours at 50° C. DNase-free ribonuclease (5 μg) in 200 μl TE buffer (10 mM Tris-HCl, pH 7.5, 1 mM EDTA) was added to each sample followed by incubation for 2 hours at 37° C. DNA was then extracted once with phenol:chloroform, once with chloroform and then precipitated with 0.5 volumes of ammonium acetate and 2 volumes of ethanol at -70° C. for 12 hours. The precipitated DNA was resuspended in 200 μl TE buffer and quantitated by absorbance at 260 nanometers. The DNA (15 μg) was applied to a 1.3% agarose gel in TBE buffer (89 mM Tris base, 89 mM boric acid, 2 mM EDTA) resolved at 20 mA constant current and the DNA was visualized by staining with ethidium bromide. Fragmented DNA due to apoptosis appeared as a ladder of bands on the gel.

HL60 = assay: Apoptosis: DNA fragmentation on agarose gel; assay type: cell-based, human; conditions: dose dependent
Description: as §1

Jurkat = assay: Apoptosis: DNA fragmentation on agarose gel; assay type: cell-based, human
Description: as §1

[1] = tested on: Ramos B cell lymphoma cells; assay: Apoptosis: DNA fragmentation on agarose gel; assay type: cell-based, human; conditions: 10 μM, by 48 hours
Description: as §1

REH = assay: Clonogenic assay in methylcellulose; assay type: cell-based; conditions: for colonies formed: seven days
Description: The selective cytotoxicity of BMLOV was examined in clonogenic assays. Cells were grown in methylcellulose media and the number of colonies formed after seven days of treatment with various doses of the drug were determined. The clonogenic assays were performed with six replicates for each treatment as described [F. M. Uckun et al., J. Exp. Med. 163:347-368 (1986); F. M. Uckun & J. A. Ledbetter, Proc. Natl. Acad. Sci. USA 85:8603-8607 (1988)). The data is given plus/minus the standard error of the mean.
For assays of cellular proliferation, cells were grown five days in the presence of the indicated concentrations of BMLOV, pulsed 6 hr with [^3 H]-thymidine (New England Nuclear, Boston, Mass.), and counted in a liquid scintillation counter. Human peripheral blood lymphocytes (PBL) from normal volunteers were isolated from lymphocyte separation medium (Litton Bionetics, Kensington, Md.) by density gradient centrifugation. Monocytes were depleted from PBL by two rounds of plastic absorption for 30 minutes at 37° C. B cells were enriched for by negative selection using complement plus monoclonal antibodies to CD2, CD3, CD4, and CD8 for complement depletion. Clonogenic assays of colony formation in methylcellulose medium were performed as previously described (F. M. Uckun et al. (1992), supra).

Jurkat T cells = assay: TUNEL analysis of fragmented DNA by flow cytometry; assay type: cell-based, human; conditions: 25 or 50 μM BMLOV, 48 h
Description: (§2) TUNEL (TdT-mediated dUTP-biotin nick end labeling) staining for the in situ detection of fragmented DNA was as previously described (Y. Gavrieli et al., J. Cell Biol. 119:493-501 (1992)) with modification to permit detection by flow cytometry. Cells (2×106) were washed with PBS and resuspended in 4% formaldehyde in PBS at 4° C. for 4 h for fixation. Cells were rinsed in PBS and permeabilized by resuspension in 70% ethanol in PBS for 1 h at 4° C. Cells were rinsed with PBS, rinsed with TdT buffer (30 mM Tris-HCl, pH 7.2, 140 mM cacodylate, 1 mM cobalt chloride) and resuspended in 150 μl TdT buffer. Biotin-dUTP (SIGMA, St. Louis, Mo.) was added to 15 μM and terminal deoxynucleotidyl transferase (TdT, Boehringer Mannheim) was added to 0.6 U/μl. DNA synthesis was for 1 h at 37° C. and was stopped by the addition of 1 ml cold PBS. Cells were rinsed twice with PBS and resuspended in 500 μl of PBS containing 5 μg of fluorescein-avidin at 4° C. for 16 h. Cells were washed twice in PBS and resuspended in 400 μl of PBS for flow cytometry. Cells were analyzed using a Becton-Dickinson FACScan flow cytometer and LYSIS analysis software.
(§3) The extent of DNA fragmentation and the cell type selective activity was quantitated by TUNEL analysis (Y. Gavrieli et al., (1992), supra); FIG. 28). […]

Ramos B cells = assay: TUNEL analysis of fragmented DNA by flow cytometry; assay type: cell-based, human; conditions: 25 or 50 μM BMLOV, 48 h
Description: as §2, §3

[2] = tested on: normal peripheral blood T cells
Description: IL-2Rα expression was analyzed by flow cytometry after staining the cells with fluorescein-labeled anti-CD25. Cells not receiving any treatment are shown by the shaded profile, (- - -) 25 μM BMLOV only; (-) G19-4 only; (. . . ) G19-4 plus BMLOV. In Panel A, no IL-2 was added; in Panel B, incubations were performed with 1 ng/ml IL-2.

[3] = tested on: 70Z/3 B cell leukemia cell line; assay: [3H]thymidine incorporation assay; assay type: cell-based, murine; conditions: 702/3, 5 days
Description: (§4) The cell lines A20, 70Z-3, L1210, and P388D were used. A20 is a B cell lymphoma cell line; 70Z/3 is a B cell leukemia cell line; L1210 is a T cell leukemia cell line; and P388D is a myeloid leukemia cell line. The cells were grown for 5 days in the presence of pV(phen) and pulsed with [^3 H]-thymidine on day 5. The extent of DNA synthesis was then determined by counting the radioactivity incorporated into the cells, as in Example 5, supra. […] The effects on L1210 cells and P388D cells are particularly noteworthy because these cell lines have been extensively used by the National Cancer Institute to identify anti-cancer drugs.

L1210 = assay: [3H]thymidine incorporation assay; assay type: cell-based, murine; conditions: 5 days
Description: as §4

P388D = assay: [3H]thymidine incorporation assay; assay type: cell-based, murine; conditions: 5 days
Description: as §4

[4] = peripheral blood t cells, 24 h, 25 µM

Compound: Cc1occc(=O)c1[O-].Cc1occc(=O)c1[O-].[O]=[V+2] [BMLOV, Bis(maltolato)oxovanadium (IV)]
- concentration for similar inhibition relative to phosphotyrosine phosphatases (PP1): over 100 fold
- induction of apoptosis (DNA fragmentation) (CEM): apoptosis was not observed; also recorded: DNA fragmentation was not observed
- induction of apoptosis (DNA fragmentation) (HL60): Apoptosis was also observed to be induced; also recorded: DNA fragmentation was also induced
- induction of apoptosis (DNA fragmentation) (Jurkat): apoptosis was not observed; also recorded: DNA fragmentation was not observed
- induction of apoptosis (DNA fragmentation) [1]: induced apoptosis; also recorded: induced extensive DNA fragmentation
- percentage of inhibition of clonogenic growth (REH; 1 μM BMLOV): 64.7%
- colonies formed (REH; 1 μM BMLOV): 1810 ± 385 colonies per 10^4 cells
- percentage of inhibition of clonogenic growth (REH; 5 μM BMLOV): 98.6%
- colonies formed (REH; 5 μM BMLOV): 71 ± 8 colonies per 10^4 cells
- percentage of inhibition of clonogenic growth (REH; 10 μM BMLOV): 99.8%
- colonies formed (REH; 10 μM BMLOV): 8 ± 1 colonies per 10^4 cells
- DNA fragmentation by TUNEL (Jurkat T cells): little labeling was observed
- DNA fragmentation by TUNEL (Ramos B cells): extensively induced in a dose dependent manner
- IL-2Rα expression without anti-CD3 stimulation ([2]; BMLOV alone or in combination with IL-2): did not induce IL-2Rα expression
- enhancement of IL-2Rα expression over anti-CD3 and IL-2 [2, 4]: 3 fold
- increase of IL-2Rα expression over anti-CD3 stimulation alone [2, 4]: 1.7 fold

Compound: [Na+].[O]=[V-]12([O][O]1)[O][O]2.c1cnc2c(c1)ccc1cccnc12 [pV(phen), sodium (1,10-phenanthroline) oxodiperoxovanadium (V)]
- [3H]-thymidine radioactivity incorporated ([3]; 5 μM pV(phen)): 53 ± 27
- [3H]-thymidine radioactivity incorporated ([3]; 10 μM pV(phen)): 49 ± 34
- [3H]-thymidine radioactivity incorporated (L1210; 5 μM pV(phen)): 244 ± 155
- [3H]-thymidine radioactivity incorporated (L1210; 10 μM pV(phen)): 464 ± 116
- [3H]-thymidine radioactivity incorporated (P388D; 5 μM pV(phen)): 2513 ± 1424
- [3H]-thymidine radioactivity incorporated (P388D; 10 μM pV(phen)): 362 ± 60
